From ChEMBL document CHEMBL5465560, “Selectivity Literature for EUbOPEN Chemogenomic Library” (2024)
Values belong to the compound of their own block, whether it stands above or below them.

Tests used:
[1] = biological target: T1, Eukaryotic elongation factor 2 kinase (Homo sapiens) (UniProt O00418); assay: Selectivity interaction (Kinase panel (Z-LYTE Assay)) EUB0001632a EEF2K; settings: at 10 µM
T1 sequence (whole entry): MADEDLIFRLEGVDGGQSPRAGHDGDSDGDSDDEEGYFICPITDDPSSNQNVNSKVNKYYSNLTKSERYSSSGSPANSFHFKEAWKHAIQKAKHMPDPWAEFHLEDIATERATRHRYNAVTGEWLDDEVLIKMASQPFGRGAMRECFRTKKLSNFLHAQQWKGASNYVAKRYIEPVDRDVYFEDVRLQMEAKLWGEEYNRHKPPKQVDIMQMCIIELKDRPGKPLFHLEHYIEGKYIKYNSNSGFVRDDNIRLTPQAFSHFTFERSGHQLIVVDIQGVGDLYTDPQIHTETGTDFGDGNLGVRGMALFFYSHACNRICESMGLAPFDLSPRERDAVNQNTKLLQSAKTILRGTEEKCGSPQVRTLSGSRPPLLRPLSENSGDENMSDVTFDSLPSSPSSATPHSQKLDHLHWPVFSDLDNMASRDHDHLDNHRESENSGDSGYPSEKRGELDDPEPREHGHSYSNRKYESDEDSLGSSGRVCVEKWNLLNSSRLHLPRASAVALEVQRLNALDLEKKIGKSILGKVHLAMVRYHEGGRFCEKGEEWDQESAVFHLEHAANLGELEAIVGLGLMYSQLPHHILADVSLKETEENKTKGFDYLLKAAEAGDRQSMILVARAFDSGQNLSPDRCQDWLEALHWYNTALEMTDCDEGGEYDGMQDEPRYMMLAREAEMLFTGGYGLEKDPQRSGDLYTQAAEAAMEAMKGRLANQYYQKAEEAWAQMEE

[2] = biological target: SRSF protein kinase 2 (Homo sapiens) (UniProt P78362); assay: Selectivity interaction (Kinase panel (Z-LYTE Assay)) EUB0001632a SRPK2; settings: at 10 µM
[3] = biological target: Mitogen-activated protein kinase 11 (Homo sapiens) (UniProt Q15759); settings: at 10 µM
[4] = biological target: Serine/threonine-protein kinase 26 (Homo sapiens, UniProt Q9P289); settings: at 10 µM
[5] = biological target: Dual specificity mitogen-activated protein kinase kinase 1 (Homo sapiens, UniProt Q02750); assay: Selectivity interaction (ActivX KiNativ screen (kinase selectivity in THP-1 cell lysates)) EUB0000639a MAP2K1; format: subcellular; settings: lysate, at 1 µM
[6] = biological target: Serine/threonine-protein kinase WNK1 (Homo sapiens) (UniProt Q9H4A3); assay: Selectivity interaction (ActivX KiNativ screen (kinase selectivity in THP-1 cell lysates)) EUB0000639a WNK1; format: subcellular; settings: lysate, at 5 µM
[7] = biological target: T2, Serine/threonine-protein kinase Nek2 (Homo sapiens) (UniProt P51955); assay: Selectivity interaction (Ambit KINOMEscan and KiNATiv profiling in Jurkat cells) EUB0000090b NEK2; format: cell-based; settings: at 1 µM
T2 sequence (whole entry): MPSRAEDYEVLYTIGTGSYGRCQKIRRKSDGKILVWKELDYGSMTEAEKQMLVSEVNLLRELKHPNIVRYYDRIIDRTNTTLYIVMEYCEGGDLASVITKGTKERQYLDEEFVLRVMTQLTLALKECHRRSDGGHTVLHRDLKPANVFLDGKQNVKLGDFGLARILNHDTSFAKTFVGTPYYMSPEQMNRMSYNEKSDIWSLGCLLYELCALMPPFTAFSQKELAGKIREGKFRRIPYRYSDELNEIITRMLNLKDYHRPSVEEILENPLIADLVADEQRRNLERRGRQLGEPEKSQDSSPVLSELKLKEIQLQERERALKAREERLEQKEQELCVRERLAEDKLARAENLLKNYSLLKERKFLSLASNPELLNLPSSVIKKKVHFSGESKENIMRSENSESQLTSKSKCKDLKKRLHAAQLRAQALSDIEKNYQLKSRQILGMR

[8] = biological target: T3, Serine/threonine-protein kinase ULK3 (Homo sapiens) (UniProt Q6PHR2); assay: Selectivity interaction (KinomeScan (DiscoverX)) EUB0000655a ULK3; settings: at 10 µM
T3 sequence (whole entry): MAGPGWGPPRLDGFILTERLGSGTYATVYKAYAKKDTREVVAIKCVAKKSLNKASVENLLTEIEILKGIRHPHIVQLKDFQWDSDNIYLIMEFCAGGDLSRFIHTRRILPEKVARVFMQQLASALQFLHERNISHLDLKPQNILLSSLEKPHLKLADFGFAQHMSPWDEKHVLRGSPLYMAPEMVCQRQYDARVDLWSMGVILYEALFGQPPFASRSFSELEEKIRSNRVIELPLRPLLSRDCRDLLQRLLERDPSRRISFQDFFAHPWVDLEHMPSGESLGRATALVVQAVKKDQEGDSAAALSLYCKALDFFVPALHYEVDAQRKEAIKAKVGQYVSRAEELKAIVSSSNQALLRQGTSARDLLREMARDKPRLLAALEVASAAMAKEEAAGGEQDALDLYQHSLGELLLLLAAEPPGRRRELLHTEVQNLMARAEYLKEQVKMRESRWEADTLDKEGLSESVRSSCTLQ

[9] = biological target: Misshapen-like kinase 1 (Homo sapiens, UniProt Q8N4C8); assay: Selectivity interaction (KinomeScan (DiscoverX)) EUB0000045b MINK1
[10] = biological target: T4, Mixed lineage kinase domain-like protein (Homo sapiens) (UniProt Q8NB16); assay: Selectivity interaction (Kinase panel (KiNativ target engagement assay in Jurkat cells)) EUB0001635a MLKL; format: cell-based; settings: at 1 µM
T4 sequence (whole entry): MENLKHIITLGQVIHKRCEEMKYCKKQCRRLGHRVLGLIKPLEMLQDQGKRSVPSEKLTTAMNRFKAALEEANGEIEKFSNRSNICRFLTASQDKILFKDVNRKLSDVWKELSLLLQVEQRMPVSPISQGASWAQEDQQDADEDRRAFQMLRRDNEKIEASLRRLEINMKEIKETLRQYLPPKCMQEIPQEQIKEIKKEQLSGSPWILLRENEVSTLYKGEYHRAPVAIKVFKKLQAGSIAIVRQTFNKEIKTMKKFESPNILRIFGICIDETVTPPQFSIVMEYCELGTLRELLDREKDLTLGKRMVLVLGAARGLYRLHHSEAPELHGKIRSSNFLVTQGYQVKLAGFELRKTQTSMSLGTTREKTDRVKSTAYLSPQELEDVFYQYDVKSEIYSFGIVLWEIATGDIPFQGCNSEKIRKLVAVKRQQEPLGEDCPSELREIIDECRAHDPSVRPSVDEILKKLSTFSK

[11] = biological target: DNA (cytosine-5)-methyltransferase 1 (Homo sapiens) (UniProt P26358); assay: Selectivity interaction (Transferase panel (protein, RNA, and DNA methyltransferases. and EP300 (acetyltransferase))) EUB0000270b DNMT1
[12] = biological target: Serine/threonine-protein kinase 32C (Homo sapiens) (UniProt Q86UX6); assay: Selectivity interaction (KinomeScan (DiscoverX)) EUB0001619a STK32C; settings: at 1 µM
Sequence of Serine/threonine-protein kinase 32C (Homo sapiens) (Q86UX6 whole entry): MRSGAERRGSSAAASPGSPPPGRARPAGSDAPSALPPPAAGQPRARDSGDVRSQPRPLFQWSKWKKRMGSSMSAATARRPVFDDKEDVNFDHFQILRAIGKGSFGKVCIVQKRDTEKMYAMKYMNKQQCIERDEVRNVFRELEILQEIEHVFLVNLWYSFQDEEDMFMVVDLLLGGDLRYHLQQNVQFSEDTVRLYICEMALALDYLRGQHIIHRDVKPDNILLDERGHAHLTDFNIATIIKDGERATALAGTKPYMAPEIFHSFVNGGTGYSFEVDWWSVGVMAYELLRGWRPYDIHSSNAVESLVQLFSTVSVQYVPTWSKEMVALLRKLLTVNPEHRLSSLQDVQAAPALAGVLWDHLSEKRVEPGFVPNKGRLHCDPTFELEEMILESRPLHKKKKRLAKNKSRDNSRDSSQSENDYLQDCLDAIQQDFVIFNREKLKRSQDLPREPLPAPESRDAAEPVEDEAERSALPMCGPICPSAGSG

Sequence of Misshapen-like kinase 1 (Q8N4C8 whole entry, looked up, the tested form may be a part): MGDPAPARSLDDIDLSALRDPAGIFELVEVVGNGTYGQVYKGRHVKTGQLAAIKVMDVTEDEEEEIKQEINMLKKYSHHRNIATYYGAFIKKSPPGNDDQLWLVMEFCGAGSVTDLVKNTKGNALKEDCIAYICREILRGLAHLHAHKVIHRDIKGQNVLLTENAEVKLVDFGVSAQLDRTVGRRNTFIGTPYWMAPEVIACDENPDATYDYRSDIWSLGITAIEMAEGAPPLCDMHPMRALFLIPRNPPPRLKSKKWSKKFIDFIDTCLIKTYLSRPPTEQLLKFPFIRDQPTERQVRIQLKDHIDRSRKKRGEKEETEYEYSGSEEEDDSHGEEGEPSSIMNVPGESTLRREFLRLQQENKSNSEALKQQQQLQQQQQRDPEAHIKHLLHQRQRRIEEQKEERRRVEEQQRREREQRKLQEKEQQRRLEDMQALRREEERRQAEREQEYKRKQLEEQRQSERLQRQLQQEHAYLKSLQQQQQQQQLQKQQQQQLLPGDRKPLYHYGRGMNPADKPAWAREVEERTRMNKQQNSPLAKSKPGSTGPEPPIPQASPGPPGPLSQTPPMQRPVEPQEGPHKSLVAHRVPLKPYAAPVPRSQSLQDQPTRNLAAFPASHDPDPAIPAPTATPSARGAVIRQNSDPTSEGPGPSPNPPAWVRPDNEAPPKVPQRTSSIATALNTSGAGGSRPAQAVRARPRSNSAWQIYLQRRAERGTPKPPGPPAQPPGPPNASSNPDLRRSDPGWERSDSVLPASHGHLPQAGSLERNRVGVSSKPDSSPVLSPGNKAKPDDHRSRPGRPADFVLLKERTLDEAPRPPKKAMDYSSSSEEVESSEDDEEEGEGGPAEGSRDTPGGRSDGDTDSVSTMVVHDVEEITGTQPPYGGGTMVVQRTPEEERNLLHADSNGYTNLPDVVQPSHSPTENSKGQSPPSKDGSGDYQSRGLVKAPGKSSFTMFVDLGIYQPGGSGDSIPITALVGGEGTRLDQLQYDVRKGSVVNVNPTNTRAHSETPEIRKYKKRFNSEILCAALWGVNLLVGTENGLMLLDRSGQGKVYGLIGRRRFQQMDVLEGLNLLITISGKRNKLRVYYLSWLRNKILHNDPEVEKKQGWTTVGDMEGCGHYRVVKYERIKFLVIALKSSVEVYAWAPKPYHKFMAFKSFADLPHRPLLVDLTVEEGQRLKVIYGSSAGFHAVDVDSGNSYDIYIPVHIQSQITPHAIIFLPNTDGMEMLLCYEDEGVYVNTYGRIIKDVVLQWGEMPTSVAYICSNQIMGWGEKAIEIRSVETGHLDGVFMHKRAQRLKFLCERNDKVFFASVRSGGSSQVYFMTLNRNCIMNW
Sequence of DNA (cytosine-5)-methyltransferase 1 (Homo sapiens) (P26358 whole entry): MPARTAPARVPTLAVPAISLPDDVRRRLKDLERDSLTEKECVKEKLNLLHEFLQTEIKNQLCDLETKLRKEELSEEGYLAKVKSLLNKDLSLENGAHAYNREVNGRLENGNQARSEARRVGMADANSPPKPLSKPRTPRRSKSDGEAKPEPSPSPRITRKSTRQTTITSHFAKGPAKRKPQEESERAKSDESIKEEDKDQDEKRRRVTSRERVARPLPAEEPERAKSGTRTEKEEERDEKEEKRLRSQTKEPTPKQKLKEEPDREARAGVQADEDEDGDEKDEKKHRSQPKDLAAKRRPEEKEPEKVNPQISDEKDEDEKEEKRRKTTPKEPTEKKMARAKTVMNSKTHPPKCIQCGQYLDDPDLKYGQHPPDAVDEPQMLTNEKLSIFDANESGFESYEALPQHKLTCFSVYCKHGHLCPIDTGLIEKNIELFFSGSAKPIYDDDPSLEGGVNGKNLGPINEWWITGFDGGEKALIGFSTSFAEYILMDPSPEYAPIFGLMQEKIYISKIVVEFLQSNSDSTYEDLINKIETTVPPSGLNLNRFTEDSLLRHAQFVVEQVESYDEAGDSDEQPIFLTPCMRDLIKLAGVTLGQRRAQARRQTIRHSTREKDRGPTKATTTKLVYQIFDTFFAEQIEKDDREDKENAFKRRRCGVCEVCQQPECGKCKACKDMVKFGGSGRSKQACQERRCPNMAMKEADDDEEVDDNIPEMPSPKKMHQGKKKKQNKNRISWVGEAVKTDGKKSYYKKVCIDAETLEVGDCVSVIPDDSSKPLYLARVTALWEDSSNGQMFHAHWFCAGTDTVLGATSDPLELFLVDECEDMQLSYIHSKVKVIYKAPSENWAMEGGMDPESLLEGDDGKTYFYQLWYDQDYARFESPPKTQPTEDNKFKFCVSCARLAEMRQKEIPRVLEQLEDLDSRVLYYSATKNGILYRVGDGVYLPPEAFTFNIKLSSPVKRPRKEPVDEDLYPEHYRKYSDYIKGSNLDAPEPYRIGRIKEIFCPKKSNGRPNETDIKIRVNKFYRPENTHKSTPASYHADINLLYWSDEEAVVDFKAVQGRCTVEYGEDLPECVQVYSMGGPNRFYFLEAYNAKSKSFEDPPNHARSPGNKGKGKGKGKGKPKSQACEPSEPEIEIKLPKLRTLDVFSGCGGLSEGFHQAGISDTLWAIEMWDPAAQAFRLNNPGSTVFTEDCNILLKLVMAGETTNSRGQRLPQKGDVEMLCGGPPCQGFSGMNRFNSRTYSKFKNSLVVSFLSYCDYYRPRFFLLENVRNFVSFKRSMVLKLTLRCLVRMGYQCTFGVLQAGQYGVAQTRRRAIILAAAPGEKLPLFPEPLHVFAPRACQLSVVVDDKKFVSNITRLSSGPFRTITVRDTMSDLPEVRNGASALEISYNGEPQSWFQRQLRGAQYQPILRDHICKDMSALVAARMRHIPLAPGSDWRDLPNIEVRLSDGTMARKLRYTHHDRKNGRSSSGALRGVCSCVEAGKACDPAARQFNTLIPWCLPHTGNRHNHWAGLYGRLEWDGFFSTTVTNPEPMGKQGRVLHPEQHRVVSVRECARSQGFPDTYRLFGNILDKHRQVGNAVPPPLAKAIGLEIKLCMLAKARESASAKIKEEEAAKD
Sequence of Dual specificity mitogen-activated protein kinase kinase 1 (Q02750 whole entry): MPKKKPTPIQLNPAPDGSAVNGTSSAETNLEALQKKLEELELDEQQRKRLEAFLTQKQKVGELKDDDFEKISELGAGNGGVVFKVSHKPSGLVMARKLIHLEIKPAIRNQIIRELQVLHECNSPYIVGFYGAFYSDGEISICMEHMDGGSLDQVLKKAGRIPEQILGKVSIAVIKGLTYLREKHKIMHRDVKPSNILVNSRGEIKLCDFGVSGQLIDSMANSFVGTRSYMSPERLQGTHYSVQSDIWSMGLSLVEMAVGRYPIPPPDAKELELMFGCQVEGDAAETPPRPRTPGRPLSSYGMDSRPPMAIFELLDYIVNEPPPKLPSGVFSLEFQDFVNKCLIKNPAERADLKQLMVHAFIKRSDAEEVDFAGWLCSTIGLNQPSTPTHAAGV
Sequence of Serine/threonine-protein kinase 26 (Q9P289 2-416 limits assumed): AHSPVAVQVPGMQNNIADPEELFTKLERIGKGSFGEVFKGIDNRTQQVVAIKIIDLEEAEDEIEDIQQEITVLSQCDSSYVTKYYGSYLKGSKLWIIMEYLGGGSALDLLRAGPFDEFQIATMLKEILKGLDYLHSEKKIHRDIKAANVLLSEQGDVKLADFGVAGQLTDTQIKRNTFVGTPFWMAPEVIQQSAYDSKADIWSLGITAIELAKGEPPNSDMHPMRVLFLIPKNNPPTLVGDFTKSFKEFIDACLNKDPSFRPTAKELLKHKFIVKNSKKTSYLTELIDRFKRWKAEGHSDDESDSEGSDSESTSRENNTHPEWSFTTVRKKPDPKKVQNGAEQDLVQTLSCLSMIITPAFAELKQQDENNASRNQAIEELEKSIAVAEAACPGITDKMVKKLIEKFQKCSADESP
Sequence of SRSF protein kinase 2 (Homo sapiens) (P78362 whole entry, looked up): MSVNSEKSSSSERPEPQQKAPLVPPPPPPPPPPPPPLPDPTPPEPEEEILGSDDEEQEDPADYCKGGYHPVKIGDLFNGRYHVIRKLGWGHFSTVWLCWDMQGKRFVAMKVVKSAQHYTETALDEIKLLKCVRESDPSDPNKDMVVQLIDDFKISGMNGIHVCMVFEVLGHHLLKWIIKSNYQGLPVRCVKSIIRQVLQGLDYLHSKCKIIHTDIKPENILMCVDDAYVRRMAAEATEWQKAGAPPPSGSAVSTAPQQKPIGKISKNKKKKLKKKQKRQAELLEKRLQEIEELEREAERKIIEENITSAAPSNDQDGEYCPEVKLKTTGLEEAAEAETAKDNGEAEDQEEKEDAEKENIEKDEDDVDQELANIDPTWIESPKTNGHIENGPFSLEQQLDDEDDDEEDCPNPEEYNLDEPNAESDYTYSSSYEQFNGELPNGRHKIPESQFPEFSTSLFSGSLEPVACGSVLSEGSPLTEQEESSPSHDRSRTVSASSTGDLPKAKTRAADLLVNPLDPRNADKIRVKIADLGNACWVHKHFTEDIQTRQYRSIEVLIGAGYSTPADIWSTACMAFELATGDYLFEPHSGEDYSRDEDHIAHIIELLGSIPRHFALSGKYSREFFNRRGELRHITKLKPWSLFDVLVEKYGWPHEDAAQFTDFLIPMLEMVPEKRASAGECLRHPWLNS

% of control [1]: 1.73%
% of control [2]: -0.444%
SMILES: Cn1cc(-n2cnc3c(NCc4nc5cc(Cl)c(Cl)cc5[nH]4)nc(N4CCOCC4)nc32)cn1

% of control [3]: 100%
% of control [4]: 100%
SMILES: CCN(CC)CCCCNc1ncc2cc(-c3cc(OC)cc(OC)c3)c(NC(=O)NC(C)(C)C)nc2n1

% of inhibition [5]: 0.2%
% of inhibition [6]: -14.5%
SMILES: CC[C@@H]1[C@H](F)C(=O)N[C@@H]1COc1nccc2cc(C(N)=O)c(OC)cc12 [ZIMLOVISERTIB]

SMILES: CN(C)C/C=C/C(=O)Nc1ccc(C(=O)N2CCCC(Nc3ncc(Cl)c(-c4c[nH]c5ccccc45)n3)C2)cc1 (centres undefined)
% of control [7]: 97%

SMILES: CN(C)CCOc1ccc(-c2nc(-c3ccncc3)c(-c3ccc4c(c3)CC/C4=N\O)[nH]2)cc1
% of control [8]: 88%

SMILES: C=CC(=O)Nc1cc(-n2c(=O)ccc3cnc4ccc(-c5ccc(NS(C)(=O)=O)cc5)cc4c32)ccc1C
% of control ([9]; at 1 µM): 100%
% of control ([9]; at 10 µM): 73%

SMILES: C=CC(=O)Nc1ccc(C(=O)Nc2[nH]nc3c2CN(C(=O)N[C@H](CN(C)C)c2ccccc2)C3(C)C)cc1
% of engagement [10]: 5.6%

% activity ([11]; at 1 µM): > 90%
% activity ([11]; at 10 µM): > 80%
SMILES: Cc1cc(CN)cc(C)c1-c1ncn(C)c1-c1cncn1C

SMILES: N#Cc1cccc(-c2c[nH]c3ncnc(N4CCOCC4)c23)c1
% of control [12]: 100%
